Test results as given in the NIST ThermoML archive (doi:10.1016/j.jct.2016.11.009).

Assay: xn = mol fraction of the nth substance listed
Settings: Fluid (supercritical or subcritical phases), Buoyancy - hydrostatic balance with magnetic suspension - one sinker

C [methane] + O=C=O
Settings | mass density [kg/m3]
300.07 K, 16598 kPa, x2 = 0.0998 | 158.42
300.1 K, 4310 kPa, x2 = 0.8988 | 90.757
300.21 K, 10004 kPa, x2 = 0.3997 | 147.143
303.07 K, 10005 kPa, x2 = 0.8988 | 522.742
303.07 K, 11007 kPa, x2 = 0.8988 | 588.449
303.1 K, 11000 kPa, x2 = 0.6015 | 229.981
303.1 K, 12003 kPa, x2 = 0.0998 | 109.095
303.1 K, 18071 kPa, x2 = 0.7985 | 621.015
303.11 K, 4004 kPa, x2 = 0.8988 | 80.364
303.11 K, 9000 kPa, x2 = 0.0998 | 78.724
303.11 K, 9001 kPa, x2 = 0.7985 | 254.341
303.11 K, 17996 kPa, x2 = 0.2017 | 202.897
303.11 K, 18001 kPa, x2 = 0.0998 | 167.945
303.12 K, 3001 kPa, x2 = 0.0998 | 23.673
303.12 K, 10001 kPa, x2 = 0.7985 | 320.908
303.12 K, 11000 kPa, x2 = 0.0998 | 98.851
303.13 K, 3999 kPa, x2 = 0.2017 | 37.359
303.13 K, 4999 kPa, x2 = 0.3997 | 61.796
303.13 K, 6004 kPa, x2 = 0.7985 | 125.434
303.13 K, 6999 kPa, x2 = 0.2017 | 69.612
303.13 K, 11860 kPa, x2 = 0.7985 | 444.556
303.13 K, 11999 kPa, x2 = 0.2017 | 130.323
303.14 K, 3995 kPa, x2 = 0.6015 | 59.469
303.14 K, 7004 kPa, x2 = 0.6015 | 119.411
303.14 K, 8002 kPa, x2 = 0.0998 | 68.892
303.14 K, 17999 kPa, x2 = 0.6015 | 420.157
303.15 K, 5000 kPa, x2 = 0.0998 | 40.895
303.15 K, 8006 kPa, x2 = 0.6015 | 143.46
303.15 K, 9999 kPa, x2 = 0.6015 | 198.747
303.15 K, 10004 kPa, x2 = 0.0998 | 88.738
303.15 K, 11003 kPa, x2 = 0.7985 | 391.279
303.15 K, 12001 kPa, x2 = 0.3997 | 181.298
303.15 K, 14998 kPa, x2 = 0.7985 | 561.073
303.16 K, 4000 kPa, x2 = 0.7985 | 73.078
303.16 K, 4001 kPa, x2 = 0.3997 | 48.004
303.16 K, 5009 kPa, x2 = 0.6015 | 77.914
303.16 K, 6006 kPa, x2 = 0.0998 | 50.034
303.16 K, 7994 kPa, x2 = 0.7985 | 200.301
303.16 K, 8000 kPa, x2 = 0.3997 | 108.241
303.16 K, 8016 kPa, x2 = 0.8988 | 253.316
303.16 K, 8992 kPa, x2 = 0.8988 | 374.284
303.16 K, 8999 kPa, x2 = 0.6015 | 169.77
303.17 K, 4998 kPa, x2 = 0.2017 | 47.685
303.17 K, 5005 kPa, x2 = 0.8988 | 108.149
303.17 K, 6001 kPa, x2 = 0.2017 | 58.474
303.17 K, 9001 kPa, x2 = 0.2017 | 93.089
303.17 K, 14997 kPa, x2 = 0.0998 | 139.317
303.17 K, 18000 kPa, x2 = 0.8988 | 742.988
303.18 K, 4002 kPa, x2 = 0.0998 | 32.139
303.18 K, 5999 kPa, x2 = 0.3997 | 76.379
303.18 K, 6996 kPa, x2 = 0.3997 | 91.801
303.18 K, 7001 kPa, x2 = 0.8988 | 186.521
303.18 K, 7999 kPa, x2 = 0.2017 | 81.148
303.19 K, 7000 kPa, x2 = 0.0998 | 59.247
303.19 K, 12002 kPa, x2 = 0.6015 | 261.85
303.19 K, 15005 kPa, x2 = 0.2017 | 167.871
303.2 K, 5001 kPa, x2 = 0.7985 | 97.235
303.2 K, 8999 kPa, x2 = 0.3997 | 125.402
303.2 K, 10993 kPa, x2 = 0.3997 | 162.067
303.2 K, 10996 kPa, x2 = 0.2017 | 117.65
303.21 K, 7002 kPa, x2 = 0.7985 | 158.82
303.21 K, 9999 kPa, x2 = 0.3997 | 143.458
303.21 K, 15000 kPa, x2 = 0.8988 | 701.018
303.21 K, 17999 kPa, x2 = 0.3997 | 288.435
303.22 K, 9998 kPa, x2 = 0.2017 | 105.223
303.22 K, 15003 kPa, x2 = 0.6015 | 352.168
303.23 K, 6005 kPa, x2 = 0.6015 | 97.567
303.26 K, 6002 kPa, x2 = 0.8988 | 141.868
